According to patent US11077092B2, “Methods of treating diabetes by administering a glucagon receptor antagonist in combination with a cholesterol absorption inhibitor” (Merck Sharp & Dohme Corp., priority 2012, dated 2021):

What was measured:
hGCGR mice [1] = test: Combination treatment of GRAs with ezetimibe in hGCGR mice (Example 9); type: in vivo; conditions: for plasma total cholesterol: GRA alone 30 mpk QD for 9 days
Text: FIGS. 15A-B illustrate total plasma cholesterol (FIG. 15A) and cholesterol absorption (FIG. 15B) upon sub-chronic treatment of hGCGR mice with vehicle. GRA Compound A (30 mpk), ezetimibe (10 mpk), or Compound A (30 mpk)+ezetimibe (10 mpk) QD for 9 days.
FIGS. 16A-B illustrate total plasma cholesterol (FIG. 16A) and cholesterol absorption (FIG. 16B) upon sub-chronic treatment of hGCGR mice with vehicle, GRA Compound D (30 mpk), Compound E (30 mpk), Compound D (30 mpk)+ezetimibe (10 mpk), or Compound E (30 mpk)+ezetimibe (10 mpk) QD for 9 days.
A similar protocol was deployed in this part of work except ezetimibe was added to the combination treatment groups. Briefly, male hGCGR mice at ˜12 wks of age were treated with vehicle, ezetimibe@10 mpk, Compound A@30 mpk, Compound D@30 mpk, Compound E@30 mpk, Compound A@30 mpk+ezetimibe@10 mpk, Compound D@30 mpk+ezetimibe@10 mpk, Compound E@30 mpk+ezetimibe@10 mpk. Plasma total cholesterol, phytosterol, cholesterol absorption, and cholesterol synthesis were quantified using the same assays as described before.

hGCGR mice [2] = test: Sub-chronic treatment of hGCGR mice with GRA (Example 1): plasma total cholesterol, phytosterols, lathosterol, cholesterol synthesis; type: in vivo; conditions: 30 mpk QD for 5 days, vs vehicle
Procedure: Male hGCGR mice (Transgenic Research, 8:295-302, 1999) at ˜12 wks of age maintained on chow diet were treated with vehicle and GRA Compounds A, B, and C at 30 mpk QD for 5 days (n=8). On Day 1, mice were administered the compounds followed by glucagon-induced glucose tolerance test. On Day 5, mice were fasted at 7:30 am. After dosing at ˜9:00 am, the blood glucose was measured at 2-h post dose with a glucometer; see FIG. 1. At 6-h post dose, the tail blood was collected for PK measurement. Mice were euthanized with CO2, and blood was collected by cardiac puncture. The liver was snap frozen in liquid nitrogen with a freezing clamp and saved in −80° C. Plasma was isolated by centrifuging the blood at 8000 rpm for 5 min. The plasma level of total cholesterol was measured by biochemical assay (Wako Chemicals Inc.). The plasma level of lathosterol and phytosterol was measured by LC/MS. To determine cholesterol synthesis. D2O was administered i.p. at 20 ml/kg on 24 h prior to takedown of the mice. The level of D2 in plasma water and plasma cholesterol was assayed by GC/MS for cholesterol synthesis. Asterisks denote statistical significance between treatment and vehicle groups.

hGCGR mice [3] = test: Dual tracer study for cholesterol absorption in hGCGR mice (Example 4); type: in vivo; conditions: 30 mpk QD for 9 days
Procedure: Male hGCGR mice at ˜12 wks of age maintained on chow or high cholesterol diet (n=8 group) were treated with vehicle and GRA Compound A@30 mpk QD for 9 days. Twenty four-hour feces before treatment and 3 days after treated were collected for fecal cholesterol characterization. On Day 4, mice were dosed with vehicle (0.5% MC, BID) or Compound A followed by administration with D6-cholesterol@15 mpk through p.o. and 13C-cholesterol@15 mpk through i.v. Blood was collected at 4, 24, 48, 72, and 96 h post injection by tail bleeding. For cholesterol synthesis, D2O was administered i.p. at 20 ml/kg on Day 7. On day 8, tail blood was collected for PK and mice were taken down for blood and liver collection. Plasma was isolated from blood by centrifuge at 8000 rpm for 5 min and submitted for GC/MS assay for cholesterol synthesis and absorption. Feces were sent to Taconic for fecal cholesterol assay. Asterisks denote statistical significance between treatment and vehicle groups. * p<0.05, **p<0.01, and ***p<0.001 by ANOVA.

hGCGR mice [4] = test: hGCGR mice, 5 day treatment with GRA Compound A and positive control LXR agonist (Example 2): plasma total cholesterol and LDL-c; type: in vivo; conditions: comparing with vehicle
Text: FIG. 6 illustrates plasma levels of total cholesterol and LDL-c in hGCGR mice following a 5 day treatment with GRA Compound A and positive control LXR agonist.
It is important to note that lipoprotein profiles of mouse and human are fundamentally different. In mice, the major lipoproteins are in HDL while in humans the main lipoproteins are in LDL-c. In preclinical studies, hGCGR mice were used as the model for in vivo study. Plasma level of total cholesterol was used as a more reliable parameter to indicate the effect of GRAS on cholesterol metabolism.

hGCGR mice [5] = test: Sub-chronic study of Compound D in hGCGR mice: glucagon-induced glucose tolerance test and plasma phytosterols (Example 5); type: in vivo; conditions: 3 and 10 mpk, Day 1
Procedure: Male wild type and hGCGR mice on chow diet were treated with vehicle or GRA Compound D@3 and 10 mpk. On Day 1, mice were administered vehicle or Compound D followed by a glucagon-induced glucose tolerance test. On Day 5, mice were fasted at 7:30 am. After dosing at ˜9:00 am, blood glucose was measured at 2-h post dose with a glucometer. At 6-h post dose, tail blood was collected for a PK measurement. Mice were euthanized with CO2, and blood was collected by cardiac puncture. The liver was snap frozen in liquid nitrogen with a freezing clamp and saved in −80° C.
Plasma was isolated by centrifuging the blood at 8000 rpm for 5 min. Plasma level of total cholesterol was measured by an enzymatic colorimetric method (Wako Chemicals Inc.). Plasma levels of lathosterol and Phytosterol was measured by LC/MS.

type 2 diabetic patients = type: in vivo, human
Procedure: In phase 2b trial studies of Compound D, the average plasma levels of LDL-c in the placebo, Compound D@20, 40, 60, 80 mg, and metformin@2 g groups were 112.3, 117.7, 117.3, 110.0, 111.9, and 113.8 mg/dl at baseline, respectively. Plasma levels of LDL-c of the majority of the patients were within the normal range (≤130 mg/dl) according to the guideline of the American Heart Association and Mayo Clinic. After 12-week treatment, the average plasma levels of LDL-c were 105.4, 117.7, 123.2, 119.7, 126.6, and 111.1 mg/dl, respectively.
The following table illustrates the plasma levels of LDL-c in the patients in the phase 2b trial of Compound D. Type 2 diabetic patients with fasting glucose level of 140 to 240 mg/dl were recruited to the phase 2b trial of Compound D. After a 6-wk washout of any previous anti-hyperglycemic agents, patients were treated with placebo, Compound D QD@20, 40, 60, and 80 mg, and metformin BID@1 g for 12 wks. Values in bold are the percentage of patients on Day-1 and wk 12 less than or equal to the designated cutoff values at 130, 110, 100, and 70 mg/dl.
The baseline plasma level of LDL-c (Day -1) was plotted with the % change of LDL-c at week 12 from baseline.
In the 46 patients on Compound D@60 mg in the phase 2b trial, 14 patients were on statins during the 12-wk trial. […] LDL-c (despite the presence of the statin); see FIG. 17.

[6] = ezetimibe 10 mpk combined with Compound A, D or E 30 mpk, QD for 9 days

In the case of `COc1ccc2cc(-c3cc(-c4cc(C(F)(F)F)ccc4F)nn3[C@@H](C)c3ccc(C(=O)NCCC(=O)O)cc3)ccc2c1` [Compound A], the plasma total cholesterol (hGCGR mice [1]) is reported as “significantly increased or tended to increase”, the plasma total cholesterol (hGCGR mice [2]) is reported as “induced” and the plasma total cholesterol (hGCGR mice [3]) is reported as “significantly increased”. The “plasma level of LDL-c” value (hGCGR mice [4]) was “significantly increased” and the “plasma level of total cholesterol” value (hGCGR mice [4]) was “significantly increased”.

`Cc1cc(OC(CCC(F)(F)F)c2ccc(C(=O)NCCC(=O)O)cc2)cc(C)c1-c1ccc(C(C)(C)C)cc1` (stereo not shown) [Compound B, 3-{4-[1-(4′-tert-butyl-2,6-dimethyl-biphenyl-4-yloxy)-4,4,4-trifluoro-butyl]-benzoylamino}-propionic acid] was tested, and the plasma total cholesterol (hGCGR mice [2]) was “induced”.

For `Cc1cc(OC(CCC(C)(C)C)c2ccc(C(=O)NCCC(=O)O)cc2)cc(C)c1-c1ccc(C(F)(F)F)cc1` (stereo not shown) [Compound C, 3-{4-[1-(2,6-Dimethyl-4′-trifluoromethyl-biphenyl-4-yloxy)-4,4-dimethyl-pentyl]-benzoylamino}-propionic acid], the plasma total cholesterol (hGCGR mice [2]) was “induced”.

With `COc1ccc2cc(-c3cc(-c4cc(Cl)cc(Cl)c4)nn3[C@@H](C)c3ccc(C(=O)NCCC(=O)O)cc3)ccc2c1` [Compound D, N-(4-{(1S)-1-[3-(3,5-dichlorophenyl)-5-(6-methoxy-2-naphthyl)-1H-pyrazol-1-yl]ethyl}benzoyl)-β-alanine] the plasma total cholesterol (hGCGR mice [1]) was “significantly increased or tended to increase”, the glucagon-induced glucose excursion (hGCGR mice [5]) was “suppressed” and the blood glucose levels (type 2 diabetic patients; 60 mg, 12-wk trial, in most patients) was “substantial reduction”.

For `CCC[C@H](c1ccc(C(=O)NCCC(=O)O)cc1)[C@H](c1ccc(Cl)cc1)c1c[nH]c2c(F)cc(C)cc12` [Compound E, N-(4-{(1S)-1-[(R)-(4-chlorophenyl)(7-fluoro-5-methyl-1H-indol-3-yl)methyl]butyl}benzoyl)-β-alanine], the plasma total cholesterol (hGCGR mice [1]) was “significantly increased or tended to increase”.

With `O=S(=O)(c1ccccc1)N(CC(F)(F)F)c1ccc(C(O)(C(F)(F)F)C(F)(F)F)cc1` [Compound T, reference compound] the “plasma level of LDL-c” value (hGCGR mice [4]) was “significantly increased” and the “plasma level of total cholesterol” value (hGCGR mice [4]) was “significantly increased”.

For `CN(C)C(=N)N=C(N)N` [Metformin, metformin, reference compound], the “average plasma level of LDL-c” value (type 2 diabetic patients; human, in vivo) was 113.8 mg/dL, the “increase of LDL-c after 12-week treatment” value (type 2 diabetic patients; human, in vivo) was 2.2% and the “percentage of patients with plasma LDL-c less than or equal to 110 mg/dl” value (type 2 diabetic patients; human, in vivo) was 54.2 percentage. The “percentage of patients with plasma LDL-c less than or equal to 130 mg/dl” value (type 2 diabetic patients; human, in vivo) was 70.8 percentage.

In the case of `O=C1[C@H](CC[C@H](O)c2ccc(F)cc2)[C@@H](c2ccc(O)cc2)N1c1ccc(F)cc1` [ezetimibe, reference compound], the “induction of cholesterol absorption caused by GRAs” value (hGCGR mice [1]; [6]) is reported as “prevented the induction” and the “induction of total cholesterol caused by GRAs” value (hGCGR mice [1]; [6]) is reported as “prevented the induction”.
